From patent US9089509B2, “Method of treatment of age-related macular degeneration” (YEDA RESEARCH AND DEVELOPMENT CO., LTD., priority 2006, dated 2015)

How the values were obtained:
[1] = test system: neural stem/progenitor cells (NPCs) co-cultured with microglia; assay: Co-culture of GFP-expressing neural progenitor cells with treated microglia, neurogenesis (GFP+/βIII-T+ cells); type: cell-based, mouse
Description: Coronal sections (2 mm thick) of tissue containing the subventricular zone of the lateral ventricle were obtained from the brains of adult C57Bl/6J mice. The tissue was minced and then incubated for digestion at 37° C., 5% CO2 for 45 min in Earle's balanced salt solution containing 0.94 mg/ml papain (Worthington, Lakewood, N.J.) and 0.18 mg/ml of L-cysteine and EDTA. After centrifugation at 110×g for 15 min at room temperature, the tissue was mechanically dissociated by pipette trituration. Cells obtained from single-cell suspensions were plated (3500 cells/cm^2) in 75-cm^2 Falcon tissue-culture flasks (BD Biosciences, San Diego, Calif.), in neural stem/progenitor cell (NPC)-culturing medium [Dulbecco's modified Eagles's medium (DMEM)/F12 medium (Gibco/Invitrogen, Carlsbad, Calif.) containing 2 mM L-glutamine, 0.6% glucose, 9.6 μg/ml putrescine, 6.3 ng/ml progesterone, 5.2 ng/ml sodium selenite, 0.02 mg/ml insulin, 0.1 mg/ml transferrin, 2 μg/ml heparin (all from Sigma-Aldrich, Rehovot, Israel), fibroblast growth factor-2 (human recombinant, 20 ng/ml), and epidermal growth factor (human recombinant, 20 ng/ml; both from Peprotech, Rocky Hill, N.J.)]. Spheres were passaged every 4-6 days and replated as single cells. Green fluorescent protein (GFP)-expressing NPCs were obtained as previously described (Pluchino et al., 2003).
Brains from neonatal (P0-P1) C57Bl/6J mice were stripped of their meninges and minced with scissors under a dissecting microscope (Zeiss, Stemi DV4, Germany) in Leibovitz-15 medium (Biological Industries, Kibbutz Beit Ha-Emek, Israel). After trypsinization (0.5% trypsin, 10 min, 37° C./5% CO2), the tissue was triturated. The cell suspension was washed in culture medium for glial cells [DMEM supplemented with 10% fetal calf serum (FCS; Sigma-Aldrich, Rehovot), L-glutamine (1 mM), sodium pyruvate (1 mM), penicillin (100 U/ml), and streptomycin ([…])] and cultured at 37° C./5% CO2 in 75-cm^2 Falcon tissue-culture flasks (BD Biosciences) coated with poly-D-lysine (PDL) (10 mg/ml; Sigma-Aldrich, Rehovot) in borate buffer (2.37 g borax and 1.55 g boric acid dissolved in 500 ml sterile water, pH 8.4) for 1 h, then rinsed thoroughly with sterile, glass-distilled water. Half of the medium was changed after 6 h in culture and every 2nd day thereafter, starting on day 2, for a total culture time of 10-14 days. […]

microglia = assay: CD11c expression and morphology in primary culture of mouse microglia; type: cell-based; settings: microglia, 10 ng/ml (FIGS. 8A-8D)
Description: Brains from neonatal (P0-P1) C57Bl/6J mice were stripped of their meninges and minced with scissors under a dissecting microscope (Zeiss, Stemi DV4, Germany) in Leibovitz-15 medium (Biological Industries, Kibbutz Beit Ha-Emek, Israel). After trypsinization (0.5% trypsin, 10 min, 37° C./5% CO2), the tissue was triturated. The cell suspension was washed in culture medium for glial cells [DMEM supplemented with 10% fetal calf serum (FCS; Sigma-Aldrich, Rehovot), L-glutamine (1 mM), sodium pyruvate (1 mM), penicillin (100 U/ml), and streptomycin ([…])] and cultured at 37° C./5% CO2 in 75-cm^2 Falcon tissue-culture flasks (BD Biosciences) coated with poly-D-lysine (PDL) (10 mg/ml; Sigma-Aldrich, Rehovot) in borate buffer (2.37 g borax and 1.55 g boric acid dissolved in 500 ml sterile water, pH 8.4) for 1 h, then rinsed thoroughly with sterile, glass-distilled water. Half of the medium was changed after 6 h in culture and every 2nd day thereafter, starting on day 2, for a total culture time of 10-14 days. Microglia were shaken off the primary mixed brain glial cell cultures (150 rpm, 37° C., 6 h) with maximum yields between days 10 and 14, seeded (10^5 cells/ml) onto PDL-pretreated 24-well plates (1 ml/well; Corning, N.Y., N.Y.), and grown in culture medium for microglia [RPMI-1640 medium (Sigma-Aldrich, Rehovot) supplemented with 10% FCS, L-glutamine (1 mM), sodium pyruvate (1 mM), β-mercaptoethanol ([…]), penicillin (100 U/ml), and streptomycin ([…])]. The cells were allowed to adhere to the surface of a PDL-coated culture flask (30 min, 37° C./5% CO2), and non-adherent cells were rinsed off.
Cover slips from co-cultures of NPCs and mouse microglia were washed with PBS, fixed as described above, treated with a permeabilization/blocking solution containing 10% FCS, 2% bovine serum albumin, 1% glycine, and 0.1% Triton X-100 (Sigma-Aldrich, Rehovot), and stained with a combination of mouse anti-[…] (anti-βIII-T) isoform C-terminus antibodies (1:500; Chemicon, Temecula, Calif.), rat anti-CD11b (MAC1; 1:50; BD—Pharmingen, Franklin Lakes, N.J.) and hamster anti-CD11c (1:100; eBioscience, San Diego, Calif.). To capture the microglia FITC- or Cy3-conjugated Bandeiraea simplicifolia isolectin B4 (IB-4; 1:50; Sigma-Aldrich, Rehovot) was used. To detect expression of human Aβ anti-Aβ (human amino-acid residues 1-17) (mouse, clone 6E10; Chemicon) was used.
On the basis of our previous findings, we suspected that the switch from a CD11b^+/CD11c^−/IGF-1^− to a CD11b^+/CD11c^+/IGF-I^+ microglial phenotype in the Cop-1 vaccinated Tg-AD mice might be attributable to IL-4. We examined this possibility in vitro. […] In contrast, the expression of CD11c induced by IL-4 was not transient. Quantification of the ability of IL-4 to induce CD11c expression even after the microglia were pretreated with Aβ is shown in FIG. 4D.
Thus, upregulation of CD11c on bone marrow derived myeloid cells by […] will allow the cells to reach injured sites and induce beneficial effect.

Row | Substance | effect of microglia activated by aggregated Aβ(1-40) on neurogenesis and NPC number ([1]; aggregated Aβ(1-40) 5 μM, 48 h pre-incubation, co-culture 10 days) | time to peak of CD11c upregulation after activation (microglia) | counteracting the negative effect of Aβ-activated microglia on NPC survival and differentiation ([1]; cytokine 10 ng/ml added for 48 h after 48 h aggregated Aβ(1-40) 5 μM) | numbers of GFP+/βIII-T+ cells in co-cultures of NPCs with activated microglia ([1]; microglia activated with 10 ng/ml, co-culture 10 days, vs microglia-free control)
1 | Aβ(1-40): β-amyloid peptide fragment 1-40, aggregated | blocked neurogenesis and decreased the number of NPCs | – | – | –
2 | IFN-γ: recombinant mouse IFN-γ | – | 2 to 3 days | failed to reverse their negative effect on neurogenesis | dramatic increase
